Laboratory results from patent US11541065B2, “Compositions and methods for treating brain injury” (UNM RAINFOREST INNOVATIONS, priority 2018, dated 2023).

Columns and labels:
[1] = test system: neuron cultures from WT and GluN2A-KO mice; test: Neuronal cell death by Hoechst DNA staining, WT and GluN2A-KO mouse neuron cultures; format: cell-based; details: for neuronal death: homocysteine 50 μM, 18 hours; for cell death: L-homocysteine 50 μM, 24 hours
Description: Neurons were subjected to staining with Hoechst 33342 dye for 15 minutes, washed extensively with PBS, and analyzed using fluorescent microscopy to assess nuclear damage. Imaging was performed with a Zeiss Axiovert 200M fluorescence microscope with attached AxioCam CCD camera using 20× objective lens (Carl Zeiss, Thomwood, N.Y.). To quantitatively assess the percentage of pyknotic nuclei a total of 1000 cells were counted for each set of experiments. Mean±SEM (n=3) were used for statistical comparison using ANOVA (Bonferroni's multiple comparison test). Differences were considered significant when p<0.05.
[…] Glutamate treated cells were then maintained in their original medium for another 17 hours. For some experiments, neurons were treated with L-homocysteine or glutamate in the presence of NVP-AAM077 or PD98059. The neurons were then fixed and stained with Hoechst 33342 dye as previously described (Poddar and Paul, 2009, J Neurochem 110:1095-1106). Percentage of pyknotic nuclei was quantitatively assessed by fluorescent microscopy to determine the extent of neuronal death.

ERK MAPK = ERK MAPK phosphorylation in ipsilateral cortex after MCAO (immunoblot); format: in vivo, Wistar rats; details: HHcy rats, MCAO 60 min, three hours of reperfusion, vs vehicle treated rats
Description: FIG. 10. ERK MAPK phosphorylation. (A) Control and hyperhomocysteinemic (HHcy) rats were subjected to MCAO for 60 min followed by reperfusion (sham, 0, 3, 6, 12 h). Cortical tissue lysates from the ipsilateral hemisphere were analyzed by immunoblotting, using anti-pERK and anti-ERK antibodies. (B) Control, HHcy and HHcy rats treated with NVP-AAM077 (HHcy+NVP) were subjected to MCAO for 60 min followed by reperfusion for 3 h. Cortical tissue lysates from the ipsilateral hemisphere were analyzed by immunoblotting, using anti-pERK and anti-ERK antibodies. The extent of ERK MAPK phosphorylation was quantified using computer-assisted densitometry and Image J analysis. Values are mean±SEM (n=5). (A) *p<0.001 from corresponding control. (B) *p<0.001 from HHcy.
Next, whether a mild ischemic insult under hyperhomocysteinemic condition could lead to prolonged increase in ERK MAPK phosphorylation was evaluated using a middle cerebral artery occlusion (MCAO) model. Normal and hyperhomocysteinemic Wistar rats were subjected to MCAO for 60 minutes followed by reperfusion for specified time periods (0, 3, 6, 12 h). […] NVP-AM077, however, blocks the prolonged phosphrylation of ERK MAPK in hyperhomocysteinemic rats at three hours of reperfusion. […]

## N[C@@H](CCS)C(=O)O [L-homocysteine]
[1]; cultures from GluN2A KO mice
  neuronal death: fails to induce neurotoxicity
[1]; cultures from WT mice
  neuronal death: significantly increases neuronal death
[1]; neurons from GluN2A-NMDAR knockout mice
  cell death: fails to alter cell death
[1]; neurons from WT mice
  cell death: significant increase in cell death

## C[C@H](NC(c1cccc2[nH]c(=O)c(=O)[nH]c12)P(=O)(O)O)c1ccc(Br)cc1 (stereo partly drawn) [NVP-AAM077, ({[(1S)-1-(4-bromophenyl)ethyl]amino}-(2,3-dioxo-1,4-dihydroquinoxalin-5-yl)methyl)phosphonic acid]
ERK MAPK
  ERK MAPK phosphorylation in ipsilateral cortex: significant reduction ERK MAPK phosphorylation
